Reference: patent publication US10993920B2, “2-dodecyl-6-methoxycyclohexa-2,5-diene-1,4-dione as a cancer therapeutic” (MIDDLE TENNESSEE STATE UNIVERSITY, priority 2014, dated 2021)

Key:
caspase 8 in BT20 cells = experiment: Caspase-Glo 8 activation assay; type: cell-based, human; conditions: BT20, 4 h, depending on the concentration
Protocol: (§1) Caspase 3/7 and caspase 8 activities were analyzed using an in-situ luminescent maker in MCF-7 and BT20 cells respectively. Cells were seeded in a white 96-well plate (Greiner), treated with 100 μM DMDD for 4 h. Caspases activity was then determined using the Caspase-Glo 3/7 Assay (Promega) or the Caspase-Glo 8 Assay (Promega) according to the manufacturer's instructions. Briefly, cells were incubated with Caspase-Glo 3/7 substrate or Caspase-Glo 8 substrate and the luminescence of each sample was measured using a SpectraMax M2e Microplate Reader (Molecular Devices).

caspase 8 in MCF-7 cells = experiment: Caspase-Glo 8 activation assay; type: cell-based, human; conditions: MCF-7, 4 h, depending on the concentration
Protocol: as §1

[1] = system: NF-κB nuclear translocation in BT20 cells; experiment: Inhibition of TNF-α activated NF-κB translocation (HCS); type: cell-based, human; conditions: BT20, 10 ng/ml TNF-α; 10 μM more significant than 32 and 100 μM
MCF-7 [2] = experiment: Apoptosis assay (Annexin V/7-AAD); type: cell-based, human; conditions: MCF-7, 48 h, concentration-dependent
Protocol: (§2) MCF-7 and BT20 cells were seeded in a 96-well plate (Corning Costar) at a density of 8,000 cells/well and were subsequently treated with different concentrations (10, 32, 100 μM) of DMDD for 48 h. Afterwards, the cells were stained with Annexin V (Millipore) and 7-Aminoactinomycin (7-AAD) (Millipore), and analyzed on a Guava flow cytometer using InCyte software (Millipore).

BT20 [3] = experiment: Apoptosis assay (Annexin V/7-AAD); type: cell-based, human; conditions: BT20, 48 h, concentration-dependent
Protocol: as §2

[4] = system: LPS-induced TNF-α production in THP-1 cells; experiment: Human TNF-α ELISA, LPS induced THP-1 cells; type: cell-based; conditions: THP-1, 12.5-50 μM pretreatment 30 min, 100 ng/ml LPS 4 h
Protocol: THP-1 cells were seeded in a 96 well plate at a density of 5×10^5 cells/well, and incubated with 100 nM phorbol-12-myristate-13-acetate (PMA) (Sigma) for 72 h. […] Dexamethasone at 1 μM (Sigma) was used as a positive control. After 4 h of stimulation, supernatants were collected for the quantification of human TNF-α using the Duoset enzyme-linked immunosorbent assay (ELISA) development kit (R&D Systems). AlamarBlue cell viability reagent (Invitrogen) was used to access cell integrity, after the supernatant was removed, at a fluorescent excitation wavelength of 555 nm and emission wavelength of 590 nm.

[5] = diabetic mouse model; cited from earlier work
MCF-7 [6] = experiment: Multi parameter cytotoxicity measurement (HCS); type: cell-based, human; conditions: MCF-7, 48 h, dose-dependent
Protocol: (§3) MCF-7 and BT20 cells were seeded in a 96-well plate (Corning Costar) at a density of 4,000 cells/well and subsequently treated with different concentrations (10, 32, 100 μM) of DMDD for 48 h. Non-treated cells and cells treated with 100 μM Valinomycin were used as negative (control) and positive controls, respectively. Afterwards, the cells were stained with a mixture of fluorescent dyes including Hoechst 33342, cell permeability dye and mitochondrial membrane potential dye (Thermo Scientific). These dyes indicated changes in nuclear morphology (Channel 1), cell membrane permeability (Channel 2) and mitochondrial transmembrane potential (Channel 3), respectively. The cells were fixed and washed, and images for each fluoroprobe were acquired at different channels using suitable filters with a 20× objective and analyzed on the Arrayscan VTI HCS Reader (Thermo Scientific). The Cell Health Profiling BioApplication (Thermo Scientific) was used for image acquisition and analysis. For each well, at least 400 cells were automatically acquired and analyzed. The average fluorescent intensity was used to quantify changes in each channel.

BT20 [7] = experiment: Multi parameter cytotoxicity measurement (HCS); type: cell-based, human
Protocol: as §3

MCF-7 [8] = experiment: Oxidative stress determination (DHE, HCS); type: cell-based, human; conditions: 48 h
Protocol: (§4) MCF-7 and BT20 cells were seeded in a 96-well tissue culture-treated plate (Corning Costar) at a density of 8,000 cells/well and were subsequently treated with different concentrations (10, 32, 100 μM) of DMDD for 48 h. Non-treated cells served as negative control, and cells treated with 1 μM Retenone served as positive control. Afterwards, the cells were stained with Hoechst 33342 (Thermo Scientific) and dihydroethidium (DHE) (Sigma), fixed and evaluated on an ArrayScan VTI HCS Reader (Thermo Scientific). The generation of ROS in cells was quantified by the oxidation of non-fluorescent DHE to fluorescent ethidium, which subsequently binds to DNA. The Nuclear Translocation BioApplication software (Thermo Scientific) was used for image acquisition and analysis. For each well, at least 400 cells were automatically acquired and analyzed. Oxidative stress activation was assessed by the DHE staining in the nucleus and measured by the average intensity of fluorescent ethidium in the identified nuclear region (MEAN_CircAvgIntenCh2).

BT20 [9] = experiment: Oxidative stress determination (DHE, HCS); type: cell-based, human; conditions: 48 h
Protocol: as §4

CCCCCCCCCCCCC1=CC(=O)C=C(OC)C1=O [DMDD, 2-dodecyl-6-methoxycyclohexa-2,5-diene-1,4-dione]
caspase 8 activity increase (caspase 8 in BT20 cells): 2-5 fold | caspase 8 activity increase (caspase 8 in MCF-7 cells): 2-5 fold | inhibition of TNF-α-induced NF-κB nuclear translocation [1]: significant inhibition | apoptosis induction (MCF-7 [2]): induced apoptosis | apoptosis induction (BT20 [3]): induced apoptosis | TNF-α level in supernatants relative to LPS alone [4]: significant reduction | effective dosage [5]: 12.5 to 25 mg/kg | mitochondrial membrane potential (MCF-7 [6]): loss of mitochondrial potential | plasma membrane permeability (MCF-7 [6]): increased plasma membrane permeability | nuclear morphology (BT20 [7]; BT20, 100 μM, 48 h): nuclear condensation | mitochondrial membrane potential (BT20 [7]; BT20, 48 h, dose-dependent): loss of mitochondrial potential | plasma membrane permeability (BT20 [7]; BT20, 48 h, dose-dependent): increased plasma membrane permeability | ROS level versus untreated control (MCF-7 [8]; MCF-7, 10 μM): nearly two-fold | ROS level versus non-treated control (MCF-7 [8]; MCF-7, 33 μM): nearly three-fold | ROS level versus untreated control (MCF-7 [8]; MCF-7, 100 μM): nearly two-fold | ROS level versus untreated control (BT20 [9]; BT20, 10 μM): nearly two-fold | ROS level versus non-treated control (BT20 [9]; BT20, 33 μM): nearly three-fold | ROS level versus untreated control (BT20 [9]; BT20, 100 μM): nearly two-fold
